These results are taken from ChEMBL document CHEMBL1201862, “PubChem BioAssay data set” (2004).

Each structure is given as a SMILES string.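 Tested at 5 concentrations; 48 h exposure; 96-well plates; endpoints linearly interpolated, else capped at highest concentration. GI50 = concentration required for 50% inhibition of growth.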 The source made the active and inactive calls. Rule as the data show it: active = GI50 up to about 1.1 µM and inactive = higher. Where only a bound is given, the exact number is not on record here.

Holding throughout (experiment): growth of human tumour cells (NCI), 48 h
Assay [1] has as its system A498.
Assay [2] relates to ACHN.
Assay [3] concerns CCRF-CEM.
Assay [4] relates to HCT-116.
Assay [5] relates to HCT-15.
Assay [6] deals with HOP-92.
Assay [7] has as its system IGROV-1.
The subject of assay [8] is LOX IMVI.
Assay [9] relates to MDA-MB-435.
The subject of assay [10] is MOLT-4.
Assay [11] deals with NCI-H460.
The test system of assay [12] is NCI-H522.
In assay [13] the test system is OVCAR-3.
For assay [14], the system named is SF-268.
Assay [15] relates to SF-539.
Assay [16] deals with SK-MEL-28.
The subject of assay [17] is SK-MEL-5.
Assay [18] deals with SK-OV-3.
Assay [19] deals with SW-620.
Assay [20] deals with U-251.

As for `Cc1ccc2c(n1)C(=O)c1cc(C)c(C)cc1C2=O`, the GI50 is > 100 µM (inactive) in assay [1]; > 100 µM (inactive) in assay [2]; > 100 µM (inactive) in assay [3]; 47.6 µM (inactive) in [4]; 75.9 µM in assay [5]; 43.1 µM (inactive) in [6]. The GI50 in assay [7] is 63.1 µM (inactive); in assay [8], 68.4 µM (inactive); in assay [9] it was 85.3 µM (inactive); in assay [10] it was > 100 µM (inactive); in assay [11], 10.6 µM (inactive); in assay [12], 20.6 µM (inactive). Moreover, the GI50 is 20.5 µM (inactive) in [13]; 49.8 µM (inactive) in assay [14]; > 100 µM (inactive) in [15]; > 100 µM (inactive) in [16]; 12.4 µM (inactive) in assay [17]; > 100 µM (inactive) in assay [18]. Further, the GI50 was 73.6 µM (inactive) in assay [19] and 27.4 µM (inactive) in assay [20].

For `COC(C/C(=C/CO[Si](C(C)C)(C(C)C)C(C)C)C(=O)Nc1ccccc1I)OC`, the GI50 is > 100 µM (inactive) in assay [1]; 37.8 µM (inactive) in [2]; 9.68 µM (inactive) in assay [3]; 8.97 µM (inactive) in [4]; 19.1 µM in assay [5]; 19 µM (inactive) in assay [6]. Also, the GI50 in assay [7] was 2.99 µM (inactive); in assay [8], 16 µM (inactive); in assay [9], 26.7 µM (inactive); in [10], 11.8 µM (inactive); in assay [11], 25.5 µM (inactive); in assay [12], 1.53 µM (inactive). Further, the GI50 in assay [13] is 21.8 µM (inactive); in [14], 46.9 µM (inactive); in assay [15] it was 19.8 µM (inactive); in assay [16], 59.4 µM (inactive); in [17], 26.5 µM (inactive); in assay [18], 28.2 µM (inactive). Further, the figures for the GI50 in assay [19] and in assay [20] were 45.4 µM (inactive) and 28 µM (inactive), respectively.

On to `C=C(C)[C@@H]1CCC2=C(CC[C@]3(C)[C@@H]([C@@H](CCC=C(C)C)C(=O)O)[C@H](O)C[C@@]23C)[C@@]1(C)CCC(=O)O` [PORICOIC ACID G], for which the GI50 in assay [1] was > 100 µM (inactive); in [2], 75.2 µM (inactive); in [3], 63.2 µM (inactive); in [4], 54.1 µM (inactive); in assay [5], 38.6 µM; in assay [6], 32.1 µM (inactive). For the same compound, the GI50 in assay [7] was 42.6 µM (inactive); in assay [8], 61.2 µM (inactive); in [9], > 100 µM (inactive); in [10], > 100 µM (inactive); in assay [11], 46.8 µM (inactive); in assay [12] it was 44.2 µM (inactive). Also, the GI50 in assay [13] was > 100 µM (inactive); in [14], 94.8 µM (inactive); in assay [15] it was 59.3 µM (inactive); in assay [16], 66.8 µM (inactive); in [17] it was 92.7 µM (inactive); in [18] it was > 100 µM (inactive). Moreover, the GI50 was > 100 µM (inactive) in [19] and 22.4 µM (inactive) in assay [20].

In the case of `O=C(C=P(c1ccccc1)(c1ccccc1)c1ccccc1)c1ccc(-c2cccc([N+](=O)[O-])c2)s1`, the GI50 in assay [1] is 35.2 µM (inactive); in [2], 45.4 µM (inactive); in assay [3], 30.6 µM (inactive); in assay [4], 61.8 µM (inactive); in assay [5], 41.1 µM; in assay [6], 16.4 µM (inactive). In addition, the GI50 in assay [7] is 50 µM (inactive); in assay [8], 67 µM (inactive); in assay [9], 51.5 µM (inactive); in assay [10] it was 20.6 µM (inactive); in [11], 39.4 µM (inactive); in [12], 23.7 µM (inactive). Further, the GI50 in assay [13] is 32.7 µM (inactive); in assay [14], > 100 µM (inactive); in assay [15], 63.4 µM (inactive); in assay [16] it was 44 µM (inactive); in assay [17], 29.9 µM (inactive); in assay [18] it was 36.1 µM (inactive). Also, the GI50 in assay [19] is 38.2 µM (inactive); in [20], 75.2 µM (inactive).
